In patent publication US5045566A, “Novel imidate insecticides” (ICI Americas Inc., priority 1989, dated 1991):

Tests used:
Assay type in all cases: in vivo
[1] = test system: Housefly [Musca domestica]; test: Housefly contact mortality in dishes (HF), 48 hours; details: μg of test compound per 25 female flies
Outline: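 Acetone solutions (with 0.01% peanut oil) dried onto dish bottoms, then 25 female flies, 1-2 days old, caged over the residue with sugar water. Mortality scored at 48 hours; LC50 from dosage-mortality curves, in μg per 25 female flies, top level 100 μg.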

[2] = test system: Maize weevil [Sitophilus zeamais (Motschulsky)]; test: Maize weevil on dipped corn seeds (MW), 48 hours; details: percent in solution, adult weevils
Outline: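 LC50, given as percent of compound in dipping solution, comes from dosage-mortality curves over concentrations descending from 0.01%. Four corn seeds soaked 2-3 s in 50:50 acetone:water solution were dried and held with 10 adult weevils, about 25° C, mortality read after 48 h.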

[3] = test system: Cabbage Looper [Trichoplusia ni (Hubner)]; test: Cabbage looper leaf dip (CL), 3-5 days; details: percent in solution, second-instar larvae
Outline: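 Steps: dilute compound in 50-50 acetone-water from 0.1% downward; immerse cotyledon pieces 2-3 s and dry; place in humid petri dishes with five second-instar larvae; record mortality at 3-5 days. Dosage-mortality curves yield LC50 as percent in solution.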

[4] = test system: Rice water weevil [Lissorhoptrus oryzophilus (Kuschel)]; test: Rice water weevil topical (RWW), 48 hours; details: μg of test compound per weevil, female adults
Protocol: (§1) The compounds in Tables 1 and 2 above were tested for insecticidal activity using the following testing procedures. LC50 values, based on the results of these tests and calculated according to dosage-mortality curves, are expressed in Table 3.
Rice water weevil [Lissorhoptrus oryzophilus (Kuschel)]:
Test compounds were diluted in acetone. Droplets (1 ul) of test solutions were applied to the ventral abdomens of ten female adult weevils. The treated weevils were placed in containers with wet cotton balls and rice foliage. The containers were covered and kept at a temperature of about 25° C. Mortality was recorded after 48 hours. Test concentrations ranged from […] down to that at which 50% mortality occurred. The LC50 values are expressed below in Table 3 under the heading "RWW" in terms of μg of test compound per weevil.

[5] = test system: Tobacco Budworm [Heliothis virescens (Fabricius)] eggs; test: Tobacco budworm eggs (TBW-E); details: percent in solution; 2-day old eggs
Outline: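 Mortality of dipped eggs served as read-out, recorded after untreated controls hatched and began feeding. Treatments used acetone solutions from 0.1% downward, with eggs incubated at 78° F; LC50 is expressed as percent of compound in the solution.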

[6] = test system: Black Bean Aphid [Aphis fabae (Scop.)]; test: Black bean aphid spray test on nasturtium (BBA), 48 hours; details: percent of test compound in sprayed solution
Outline: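 LC50, given as percent test compound in the sprayed liquid, was calculated from dosage-mortality curves using concentrations from 0.05% downward. Sprays in 50:50 acetone-water went to runoff on ~5 cm nasturtiums carrying 25-50 aphids of mixed ages, one day after infestation. Deaths were counted 48 h later under greenhouse conditions.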

[7] = test system: Tobacco Budworm [Heliothis virescens (Fabricius)] larvae; test: Tobacco budworm larvae, contact (TBW-C), 5 days; details: percent in solution, second-instar larvae
Outline: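 Cotton cotyledons dipped 2–3 s in compound in 50-50 acetone-water, dried, then infested with 5 second-instar larvae and held 5 days at high humidity. Mortality scored; LC50 from dosage-mortality curves, expressed as percent compound in solution, concentrations from 0.1% downward.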

[8] = test system: Beet Armyworm (Spodoptera exigua); test: Beet armyworm leaf dip (BAW), 5 days; details: percent in solution; second-instar larvae; five days
Protocol: as §1
Beet Armyworm (Spodoptera exigua):
Test compounds were diluted in a 50-50 acetone-water solution. Young leaves of sugar beets (Beta vulgaris) were immersed in the test solutions for 2-3 seconds and placed on a wire screen to dry. The dried leaves were placed in petri dishes containing a moistened filter paper and infested with five second-instar beet armyworm larvae. The dishes were placed in a high humidity chamber. Mortality of the larvae was recorded five days later. Test concentrations ranged from 0.1% downward. The LC-50 values are expressed below in Table 3 under the heading "BAW" in terms of percent of the test compound in solution.

[9] = test system: Aster Leafhopper [Macrosteles fascifrens (Stal)]; test: Aster leafhopper on dipped oat seedlings (LH), 48 hours; details: percent in solution, adults/nymphs
Outline: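 Three ~10 cm oat seedlings per cup were dipped 2-3 seconds in 50-50 acetone-water compound solutions, dried, and caged with ten adult/nymph leafhoppers. Mortality was counted after 48 hours at concentrations from 0.05% downward. LC50, as percent compound in solution, came from dosage-mortality curves.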

SMILES	LC50 HF [1] [µg]	LC50 MW [2] [%]	LC50 CL [3] [%]	LC50 RWW [4] [µg]	LC50 TBW E (eggs) [5] [%]	LC50 BBA [6] [%]	LC50 TBW C (contact) [7] [%]	LC50 BAW [8] [%]	LC50 LH [9] [%]
CC(C)C(=Nc1cccc(F)c1)OCc1ccc(F)c(Oc2ccc(Cl)cc2)c1 [Compound 375]	7.9	> 0.01	> 0.1	> 2.5	0.04	0.0006			
CCOc1ccc(N=C(OCc2ccc(F)c(Oc3ccccc3)c2)C(C)C)cc1Cl [Compound 370]	< 100	> 0.01	0.00034	> 2.5	0.02	0.0002			
CC(C)(F)C(=Nc1ccc(F)c(Cl)c1)OCc1ccc(F)c(Oc2ccc(F)cc2)c1 [Compound 310]	4.5		0.00006	> 2.5	0.015	0.0006			
CC(C)C(=Nc1ccc(Cl)cc1)OCc1ccc(F)c(Oc2ccc(Cl)cc2)c1 [Compound 391]	< 100	> 0.01	0.00029	> 2.5	0.035	0.0006			
CC(C)C(=Nc1ccc(C(F)(F)F)c(Br)c1)OCc1ccc(F)c(Oc2ccc(Cl)cc2)c1 [Compound 433]	< 100	0.005	0.00017	0.078	0.02	0.0003			
CC(Cl)(Cl)C(=Nc1ccc(Cl)cc1)OCc1cccc(Oc2ccccc2)c1 [Compound 3]	50	> 0.01	0.012		> 0.1	0.003	0.009	0.015	> 0.05
CC(C)C(=Nc1ccc(OC(F)(F)F)cc1)OCc1ccc(F)c(Oc2ccc(F)c(F)c2)c1 [Compound 347]	30	> 0.01	0.000075		> 0.1	0.0002	0.0001	0.00075	0.0002
CC(C)C(=Nc1cc(F)cc(C(F)(F)F)c1)OCc1cccc(Oc2ccccc2)c1 [Compound 77]	10	> 0.01	0.0005		0.03	0.001	0.0004	0.004	0.0002
Clc1cccc(N=C(OCc2cccc(Oc3ccccc3)c2)C(Cl)Cl)c1 [Compound 1]	4.8	> 0.01	0.005		0.05	0.0003	0.06	0.009	> 0.05
CC(C)C(=Nc1ccc(F)c(Cl)c1)OCc1ccc(F)c(Oc2ccc(F)c(F)c2)c1 [Compound 346]	7.2	> 0.01	> 0.1		> 0.1	0.0008	0.0002	> 0.1	0.05
Clc1ccc(N=C(OCc2cccc(Oc3ccccc3)c2)C(Cl)Cl)cc1 [Compound 29]	5	> 0.01	0.002		0.01	0.001	0.001	0.003	0.003
ClCC(=Nc1ccc(Cl)cc1)OCc1cccc(Oc2ccccc2)c1 [Compound 31]	> 100	> 0.01	0.05		> 0.1	0.05	0.01	0.08	> 0.05
CC(C)C(=Nc1ccc(Cl)c(Cl)c1)OCc1cccc(Oc2ccccc2)c1 [Compound 9]	14	> 0.01	0.001		0.02	0.001	0.0008	0.0005	0.0003
CC(C)C(=Nc1cccc(I)c1)OCc1ccc(F)c(Oc2ccc(F)cc2)c1 [Compound 279]	4	> 0.01	0.00008		0.016	0.0005	0.007	0.0025	0.0003
CC(C)C(=Nc1cccc(Cl)c1)OCc1cccc(Oc2ccc(Cl)cc2)c1 [Compound 270]	12	> 0.01	0.00025		> 0.01	> 0.05	> 0.0015	0.005	0.003
CC(C)C(=Nc1ccc2c(c1)OCO2)OCc1cccc(Oc2ccc(F)cc2)c1 [Compound 176]	1.8	0.009	0.0005		0.05	0.0006	0.002	0.0035	> 0.05
Fc1ccc(N=C(OCc2cccc(Oc3ccccc3)c2)C2CC2)cc1Cl [Compound 113]	15		0.005	> 2.5					
FC(F)(F)c1ccc(N=C(OCc2cccc(Oc3ccccc3)c2)C(Cl)Cl)cc1 [Compound 61]	29	> 0.01	0.001		0.03	0.001	0.03	0.002	> 0.05
FC(F)(F)Oc1ccc(N=C(OCc2cccc(Oc3ccccc3)c2)C(Cl)Cl)cc1 [Compound 64]	11	> 0.01	0.0025		0.03	0.0006	0.1	0.0025	> 0.05
CC(C)C(=Nc1ccc(F)c(F)c1F)OCc1cccc(Oc2ccc(F)cc2)c1 [Compound 348]	8	> 0.01	0.0002		> 0.1	0.001	0.00075	> 0.1	0.05
CC(C)C(=Nc1ccc(C(F)(F)F)cc1)OCc1ccc(F)c(Oc2ccc(F)cc2)c1 [Compound 314]	21		0.00005	0.11	0.012				
CC(Cl)C(=Nc1ccc(Cl)cc1)OCc1cccc(Oc2ccccc2)c1 (centres unmarked) [Compound 33]	17	> 0.01	0.01		> 0.1	0.003	0.0025	0.02	> 0.05
CC(C)C(=Nc1ccc(F)c(Br)c1)OCc1cccc(Oc2ccccc2)c1 [Compound 254]	6		0.001	> 2.5	0.026	0.001			
